Experiments:
[1] = tested on: tyrosine hydroxylase positive mesencephalic neurons injured by 6-OHDA; assay: Neuroprotective effect on damage induced by 6-OHDA on culture of mesencephalic neurons; format: cell-based; settings: Rattus norvegicus, Neuron; 50 uM; 6-OHDA 15 μM, 48h; read-out: % reversion of TH positive neurons (6-OHDA-mediated degradation of dopaminergic neurons)
Description: The protective effect of compounds of the present disclosure was determined on 6-OHDA-mediated injury on mesencephalon neuronal cultures.
(§1) A female Wistar rat (Janvier; France) of 15 days gestation was terminated by cervical dislocation, the fetuses were removed from the uterus and their brains were harvested and placed in ice-cold medium (Leibovitz's L15 medium, Gibco). Only ventral mesencephalic flexure was used for the cell preparations. The midbrain was dissociated by trypsinization. The reaction was stopped, and the suspension was triturated and centrifuged. The pellet of dissociated cells was resuspended in chemically defined medium consisted of Neurobasal (Gibco, 21103049), containing B27 supplement (Gibco, A3582801) and L-glutamine (Gibco, 25030081), 10 ng/ml (BDNF; Pepro Tech, France, 450-02) and 1 ng/ml (GDNF; Pepro Tech, 450-51).
(§2) Viable primary rat embryo mesencephalic cells were counted and seeded on 96-multi-wells plate precoated with poly-L-lysine. Cells were maintained in a humidified incubator at 37° C. in 5% CO2-95% air atmosphere and medium changed on day 2. On day 6, the culture medium was removed and replaced by new media without neurotrophic factors containing the compounds of the present disclosure (50-10 μM) or vehicle (0.1% DMSO). After 1h exposure, injury of mesencephalon neuronal cultures was induced by 6-OHDA (15 μM) for further 48h. A mixture of the growth factors GDNF (1 ng/ml) and BDNF (10 ng/ml) were used as reference compound. On day 8, the tyrosine hydroxylase positive neurons were evaluated. Cultures were fixed 30 min at 4° C. with paraformaldehyde in PBS (4%, Sigma). After, cells were permeabilized with 0.1% Triton X100 for 30 min, saturated with PBS containing 3% of BSA (bovine serum albumin) and incubated 2h with anti-tyrosine hydroxylase antibody (Sigma, 1:10000; clone TH-2) at 1/10000 in PBS containing 0.5% of BSA. Cells were washed three times with PBS containing 0.5% of BSA and incubated 1h with goat anti mouse antibody coupled with AF488 (Invitrogen A11001) diluted at 1/1000 in PBS containing 0.5% of BSA. Finally, nuclei were stained with DAPI (Thermo fisher, D1306) at 1/1000 in PBS containing 0.5% of BSA. After rinsing with PBS, the plate was visualized and examined with Cell Insight HCS (Thermo Scientific) to determine the number of tyrosine hydroxylase positive cells per well.
(§3) The results for each well were expressed as a percentage by setting the density of tyrosine hydroxylase positive cells under control conditions to 100%. Then the result for each condition was reported as mean±SEM from 4 independent cultures.
(§4) A global analysis of the data was performed using a one-way analysis of variance (ANOVA), followed by Fisher's Protected Least Significant Difference when applicable. The level of significance was set to p<0.05.

[2] = tested on: tyrosine hydroxylase positive mesencephalic neurons injured by MPP+; assay: Neuroprotective effect on damage induced by MPP+ on culture of mesencephalic neurons; format: cell-based; settings: Rattus norvegicus, Neuron, MPP+ 50 μM, 48h, read-out: % reversion of TH positive neurons (MPTP-mediated degradation of dopaminergic neurons)
Source text: as §1, with “(Gibco),” for “(Gibco, 21103049),”, “(Gibco)” for “(Gibco, A3582801)”, “(Gibco),” for “(Gibco, 25030081),”, “France)” for “France, 450-02)”, “Tech).” for “Tech, 450-51).”
as §2, with “MPP^+ (50” for “6-OHDA (15”, “Thermo Scientific, 28908).” for “Sigma).”, “DAPI” for “DAPI (Thermo fisher, D1306)”
as §3, §4

[3] = tested on: primary fibroblasts (healthy controls and PA, MMA, BCKDK, PDH, VLCAD, LS, PC, GA, VLCFA, KSS, FXN, HD); assay: Measurement of ROS (H2DCFDA) in primary fibroblasts; format: cell-based, human; settings: Homo sapiens, Fibroblast; BCKD GM00612; procedure Example 812; Assay Condition A; read-out: Decreased ROS by at least 10%
In short: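 Patient and healthy-control primary fibroblasts switched to supplemented DMEM 24 h before assay, then treated with compound (10 μM) plus H2DCFDA (22 μM) for 2 h (PA, MMA lines) or 24 h (other lines). Kinetic fluorescence at 492/527 nm over 60 min; only live cells analysed.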

Compound `CC(C)(CO)[C@@H](O)C(=O)NCCC(=O)NCCSC(=O)[C@@H](N)CCC(=O)O` [Compound 383] has an inhibition at 50 µM [1] of at least 30%, an inhibition at 10 µM [2] of at least 60% and an inhibition at 10 µM [3] of at least 10%.

— patent US20230107216A1, “PANTETHEINE DERIVATIVES AND USES THEREOF” (Comet Therapeutics, Inc., priority 2018, published 2023)
